The test system of experiment [1] is Aedes aegypti (Orlando strain) females. As to the kind of experiment: Glytube feeding: females feeding to repletion and weight per female (meal palatability). It is filed as in vivo. The note with it: Supplemental Figure 1 Panel A; compounds of Fig 3; individual replicate values. As to the method: (§1) Groups of 60–150 females were placed in bucket cages with a diameter of 21.6 cm and height of 16.5 cm (VWR) and fasted with access to water for 24 h prior to feeding. Meals were delivered to females via Glytube membrane feeders as described previously. Meals consisted of 1.5 ml sheep blood (HemoStat Laboratories), saline (400 mM NaHCO3 + dih2O), or saline and test compound. Lyophilized compounds were stored at room temperature until use. High-concentration stocks (30 mM in 100% dimethyl sulfoxide [DMSO]) (Sigma-Aldrich) were stored at −20 °C and diluted in saline immediately prior to feeding. Once prepared, meals and glycerol heating elements were warmed in a 42 °C water bath for 15 min to provide warmth to attract mosquitos to feed. ATP (1 mM final concentration) and test compounds (1 μM final concentration) were added prior to placing the meal on top of the mesh on the cage containing female mosquitos. Females were allowed 15–20 min to feed to repletion. Abdominal engorgement was scored by eye and confirmed by weighing females to ensure full feeding (Data S1). […] Females were returned to their original cage with a diH2O wick for 48 h prior to behavioral testing. The lethality of each compound was measured by counting the number of dead females in each cage 24 h post-meal.
Supplementary file 13071_2024_6347_MOESM1_ESM.png: Supplementary Material 1: Figure 1. […] (A) Percent of females feeding to repletion and (B) weight per female after feeding on the indicated meal used for testing in Miniport olfactometer experiments in Figure 3B. (C) Percent of females feeding to repletion and (D) weight per female after feeding on the indicated meal used for testing in live host assays in Figure 4. Data are shown as mean with standard deviation. n = 2–22 replicate cages, 60–150 females/cage. Females were weighed in groups of five to ensure reliable readings. Kruskal–Wallis with Dunn’s multiple comparisons to saline-fed group, ns P > 0.01, * P < 0.01, *** P < 0.0001. (PNG 321 KB)

For experiment [2] the test system is unchanged. As to the kind of experiment: Biting assay (mouse-in-cage). The note with it: for Percentage of females that freshly blood-fed on an anesthetized mouse: fed 1 μM 48 h prior, 15 min exposure, individual replicates; for effect on biting / blood-feeding from a live host (in words): fed at a dose of 1 μM. Details: key to Difference between medians: Actual (vs. saline) / Difference between medians: Hodges-Lehmann (vs. saline): differences in percent biting (blood-fed/total females, %). It is filed as in vivo. As to the method: as §1, with “ATP (1 mM final concentration) and test compounds (1 μM final concentration) were added prior to placing the meal on top of the mesh on the cage containing female mosquitos.” left out
This assay was modified from. Females were fed and scored as described above. Forty-eight hours post-meal, females were anesthetized in a 4 °C cold room and aspirated into a petri dish (Thermo Fisher Biosciences) with a randomly assigned color powder (Slice of the Moon; Chameleon Colors) to mark their treatment group. Females were then individually removed from the color powder, placed inside a cage measuring 91 cm × 61 cm × 61 cm (BugDorm), and allowed 2–4 h to recover. Each experiment consisted of a cage with 12–20 females in each treatment group including environmental (non-fed and blood-fed) and vehicle (saline-fed) control groups. The experiment began once an anesthetized mouse was introduced to the center of the cage, and females were allowed 15 min to blood-feed. The mouse was then removed, and the cage was placed at 4 °C to anesthetize females for collection. Females were aspirated into a large glass petri dish (Pyrex) and scored under a dissection microscope (Nikon SMZ1500) for powder color and blood-feeding status. Females were scored as blood-fed if fresh blood was present in the abdomen. Percent biting was calculated as females freshly blood-fed/total females in each respective treatment group.

Experiment [3] shares this test system. Also noted: method as in PMID 30735632. Conditions: previous work; cited from earlier work.
Another experiment has as its target Ae. aegypti NPYLR7 (Aedes aegypti, UniProt U5N1H5). Also noted: method as in PMID 30735632. The note with it: previous work; read-out: EC50 in activating NPYLR7 in vitro; cited from earlier work.

Results on 3 molecules are retold here after PMC11212260, “Next-generation neuropeptide Y receptor small-molecule agonists inhibit mosquito-biting behavior” (Parasites & Vectors, 2024).

Where “and” joins values, the source holds several entries; their conditions need not be identical. Equal values may be shown once.

Chain of Ae. aegypti NPYLR7 (U5N1H5 entry or part of it): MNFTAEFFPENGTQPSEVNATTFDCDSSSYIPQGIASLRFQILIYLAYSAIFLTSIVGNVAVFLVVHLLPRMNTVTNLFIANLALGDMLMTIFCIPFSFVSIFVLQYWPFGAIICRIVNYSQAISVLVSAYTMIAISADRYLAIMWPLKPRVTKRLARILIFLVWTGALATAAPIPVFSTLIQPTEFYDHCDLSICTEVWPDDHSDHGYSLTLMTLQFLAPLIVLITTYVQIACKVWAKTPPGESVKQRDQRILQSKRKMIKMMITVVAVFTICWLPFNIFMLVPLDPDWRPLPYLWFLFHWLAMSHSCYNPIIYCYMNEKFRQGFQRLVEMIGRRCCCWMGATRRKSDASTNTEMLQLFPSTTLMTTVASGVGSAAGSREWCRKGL

Turning to `CNc1nc(NC(=N)N)nc2cc(OCc3ccccc3)c(OC)cc12` [TDI-014184], the “% feeding (females feeding to repletion)” value in experiment [1] worked out at 76.92%. Further, in experiment [2] (fed 1 μM), the “Difference between medians: Actual (vs. saline)” value is recorded as -27.4; the “Difference between medians: Hodges-Lehmann (vs. saline)” value is -24; the “Median (percent freshly blood-fed)” value is 47.00, n=11%; the “Significantly different (P < 0.05)? vs. saline” value is “Yes”. Moreover, the “Percentage of females that freshly blood-fed on an anesthetized mouse” value in experiment [2] (listed as TDI-04184) was 65% and 81% and 47% and 10% and 44% and 86% and 33% and 56% and 35%. In addition, the “effect on biting / blood-feeding from a live host (in words)” value in experiment [2] is “reduced biting behavior”.

With `COc1ccc2c(C)nc(NC(=N)N)nc2c1` [TDI-012631, reference compound], the “fed dose at which behaviorally active” value in experiment [3] was over 30 µM. Further, in experiment [2] (fed 100 μM), the “Difference between medians: Actual (vs. saline)” value was -26; the “Difference between medians: Hodges-Lehmann (vs. saline)” value was -24.68; the “Median (percent freshly blood-fed)” value is listed as 53.00, n=17%; the “Significantly different (P < 0.05)? vs. saline” value is listed as “Yes”. Besides, the “effect on blood-feeding from a live host (in words)” value in experiment [2] (fed at a dose of 100 μM) is recorded as “inhibited blood-feeding”. Also, at Ae. aegypti NPYLR7, the EC50 was 19.6 µM.

Consider `Cc1nc(NC(=N)N)nc2cc(N3CCc4ccccc4C3)ccc12` [TDI-014186], for which, in experiment [1], the “% feeding (females feeding to repletion)” value came out at 56.22%. Further, in experiment [2] (fed 1 μM), the “Difference between medians: Actual (vs. saline)” value is -18.25; the “Difference between medians: Hodges-Lehmann (vs. saline)” value was -17; the “Median (percent freshly blood-fed)” value is on record as 54.25, n=9%; the “Significantly different (P < 0.05)? vs. saline” value is given as “Yes”. Moreover, the “Percentage of females that freshly blood-fed on an anesthetized mouse” value in experiment [2] (listed as TDI-04186) is 31% and 62% and 70% and 67% and 36% and 53% and 65%. Moreover, the “effect on biting / blood-feeding from a live host (in words)” value in experiment [2] is reported as “effectively reduced biting”.

Usually EC50 stands for the concentration at which the effect is half-maximal.
